ChEMBL document CHEMBL5715260, “Selectivity Literature for EUbOPEN Chemogenomic Library” (2024)

Experiments:
[1] = target: Sodium-dependent noradrenaline transporter (Homo sapiens) (UniProt P23975); test: Selectivity interaction (CEREP panel) EUB0000089c SLC6A2; parameters: recommended concentration 1 uM; conditions: at 10 µM
[2] = target: 5-hydroxytryptamine receptor 2B (Homo sapiens) (UniProt P41595); test: Selectivity interaction (CEREP panel) EUB0000089c HTR2B; parameters: recommended concentration 1 uM; conditions: at 10 µM
Sequence of 5-hydroxytryptamine receptor 2B (Homo sapiens) (P41595 whole entry): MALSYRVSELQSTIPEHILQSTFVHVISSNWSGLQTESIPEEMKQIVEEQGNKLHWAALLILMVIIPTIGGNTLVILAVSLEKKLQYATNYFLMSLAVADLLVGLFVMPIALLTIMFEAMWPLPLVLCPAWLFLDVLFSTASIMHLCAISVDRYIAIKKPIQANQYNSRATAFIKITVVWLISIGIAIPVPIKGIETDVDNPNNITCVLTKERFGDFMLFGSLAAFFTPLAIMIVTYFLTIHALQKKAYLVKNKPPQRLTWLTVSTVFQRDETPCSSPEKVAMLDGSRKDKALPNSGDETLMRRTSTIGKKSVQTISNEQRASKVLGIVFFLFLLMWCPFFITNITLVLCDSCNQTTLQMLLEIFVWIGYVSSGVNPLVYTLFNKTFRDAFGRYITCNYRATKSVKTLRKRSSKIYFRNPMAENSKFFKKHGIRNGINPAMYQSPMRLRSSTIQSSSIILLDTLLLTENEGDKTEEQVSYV

[3] = target: Adenosine receptor A2a (Homo sapiens) (UniProt P29274); test: Selectivity interaction (CEREP panel) EUB0000089c ADORA2A; parameters: recommended concentration 1 uM; conditions: at 10 µM
Sequence of Adenosine receptor A2a (Homo sapiens) (P29274 whole entry): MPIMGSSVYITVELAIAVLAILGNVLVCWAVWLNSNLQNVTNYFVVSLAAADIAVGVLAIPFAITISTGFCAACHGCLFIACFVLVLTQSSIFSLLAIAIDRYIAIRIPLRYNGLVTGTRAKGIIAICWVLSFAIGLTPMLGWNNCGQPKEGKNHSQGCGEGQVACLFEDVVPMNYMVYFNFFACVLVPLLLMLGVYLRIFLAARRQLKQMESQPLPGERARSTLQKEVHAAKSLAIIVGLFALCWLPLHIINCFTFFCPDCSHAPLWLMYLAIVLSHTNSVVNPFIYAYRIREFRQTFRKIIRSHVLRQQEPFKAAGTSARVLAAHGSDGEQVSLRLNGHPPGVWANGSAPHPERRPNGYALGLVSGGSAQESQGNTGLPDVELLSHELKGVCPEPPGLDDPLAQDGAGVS

[4] = target: Adenosine receptor A1 (Homo sapiens) (UniProt P30542); test: Selectivity interaction (CEREP panel) EUB0000089c ADORA1; parameters: recommended concentration 1 uM; conditions: at 10 µM
Sequence of Adenosine receptor A1 (Homo sapiens) (P30542 whole entry): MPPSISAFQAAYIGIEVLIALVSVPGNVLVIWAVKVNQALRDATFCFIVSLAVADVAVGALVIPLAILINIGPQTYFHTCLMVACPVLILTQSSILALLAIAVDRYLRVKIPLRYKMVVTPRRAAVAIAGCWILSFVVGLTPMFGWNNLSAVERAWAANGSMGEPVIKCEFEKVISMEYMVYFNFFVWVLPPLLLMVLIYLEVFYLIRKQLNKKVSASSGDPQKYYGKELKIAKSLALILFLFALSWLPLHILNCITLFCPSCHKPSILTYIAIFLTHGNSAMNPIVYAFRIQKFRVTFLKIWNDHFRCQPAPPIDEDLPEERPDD

[5] = target: T1, Retinoic acid receptor RXR-alpha (Homo sapiens) (UniProt P19793); test: Selectivity interaction (Reporter gene assay) EUB0000184b RXRA; parameters: recommended concentration 1 uM
T1 sequence (whole entry): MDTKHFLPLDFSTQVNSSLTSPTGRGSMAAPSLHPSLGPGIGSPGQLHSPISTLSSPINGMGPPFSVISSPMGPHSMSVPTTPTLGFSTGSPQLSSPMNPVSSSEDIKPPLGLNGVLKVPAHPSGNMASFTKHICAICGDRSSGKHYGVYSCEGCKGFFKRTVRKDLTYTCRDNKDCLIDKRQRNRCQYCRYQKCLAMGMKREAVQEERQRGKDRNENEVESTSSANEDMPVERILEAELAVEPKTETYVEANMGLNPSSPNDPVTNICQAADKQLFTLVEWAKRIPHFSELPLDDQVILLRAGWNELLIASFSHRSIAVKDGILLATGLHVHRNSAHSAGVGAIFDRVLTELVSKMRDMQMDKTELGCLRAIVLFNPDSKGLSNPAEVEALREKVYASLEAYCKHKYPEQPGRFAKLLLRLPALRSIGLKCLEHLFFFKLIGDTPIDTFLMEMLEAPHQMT

[6] = target: T2, Alpha trans-inducing protein (Human alphaherpesvirus 1) (UniProt A0A5J6DW59); test: Selectivity interaction (Reporter gene assay) EUB0000184b UL48; parameters: recommended concentration 1 uM
T2 sequence (A0A5J6DW59 as listed by the source): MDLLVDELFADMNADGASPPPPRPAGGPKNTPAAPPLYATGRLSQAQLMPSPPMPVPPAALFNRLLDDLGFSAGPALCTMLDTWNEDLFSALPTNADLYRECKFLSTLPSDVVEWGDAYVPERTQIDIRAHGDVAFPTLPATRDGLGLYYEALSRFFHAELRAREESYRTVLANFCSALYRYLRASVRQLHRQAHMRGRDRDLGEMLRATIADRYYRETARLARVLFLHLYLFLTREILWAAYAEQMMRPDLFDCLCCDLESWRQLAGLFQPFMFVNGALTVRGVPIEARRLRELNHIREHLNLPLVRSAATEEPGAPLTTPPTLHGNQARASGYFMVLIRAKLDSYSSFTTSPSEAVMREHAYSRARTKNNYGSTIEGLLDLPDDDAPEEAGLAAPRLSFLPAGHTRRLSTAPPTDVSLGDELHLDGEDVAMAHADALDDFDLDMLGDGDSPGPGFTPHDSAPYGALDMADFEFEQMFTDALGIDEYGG

[7] = target: T3, Hepatocyte nuclear factor 4-alpha (Homo sapiens) (UniProt P41235); test: Selectivity interaction (Reporter gene assay) EUB0000184b HNF4A; parameters: recommended concentration 1 uM
T3 sequence (whole entry): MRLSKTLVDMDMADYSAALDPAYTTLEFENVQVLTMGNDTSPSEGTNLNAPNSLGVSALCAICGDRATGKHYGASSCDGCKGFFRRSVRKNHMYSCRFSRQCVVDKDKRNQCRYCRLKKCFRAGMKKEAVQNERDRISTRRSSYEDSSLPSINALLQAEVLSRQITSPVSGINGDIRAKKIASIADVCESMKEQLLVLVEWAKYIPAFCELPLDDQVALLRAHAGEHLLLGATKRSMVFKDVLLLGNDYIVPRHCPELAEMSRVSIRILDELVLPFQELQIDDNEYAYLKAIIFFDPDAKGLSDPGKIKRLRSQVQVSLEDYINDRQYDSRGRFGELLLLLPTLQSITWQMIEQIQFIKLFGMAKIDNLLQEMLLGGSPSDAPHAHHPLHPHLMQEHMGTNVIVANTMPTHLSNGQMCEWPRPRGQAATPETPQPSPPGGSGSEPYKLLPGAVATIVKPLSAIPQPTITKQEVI

[8] = target: T4, Nuclear receptor subfamily 2 group C member 1 (Homo sapiens) (UniProt P13056); test: Selectivity interaction (Reporter gene assay) EUB0000184b NR2C1; parameters: recommended concentration 1 uM
T4 sequence (whole entry): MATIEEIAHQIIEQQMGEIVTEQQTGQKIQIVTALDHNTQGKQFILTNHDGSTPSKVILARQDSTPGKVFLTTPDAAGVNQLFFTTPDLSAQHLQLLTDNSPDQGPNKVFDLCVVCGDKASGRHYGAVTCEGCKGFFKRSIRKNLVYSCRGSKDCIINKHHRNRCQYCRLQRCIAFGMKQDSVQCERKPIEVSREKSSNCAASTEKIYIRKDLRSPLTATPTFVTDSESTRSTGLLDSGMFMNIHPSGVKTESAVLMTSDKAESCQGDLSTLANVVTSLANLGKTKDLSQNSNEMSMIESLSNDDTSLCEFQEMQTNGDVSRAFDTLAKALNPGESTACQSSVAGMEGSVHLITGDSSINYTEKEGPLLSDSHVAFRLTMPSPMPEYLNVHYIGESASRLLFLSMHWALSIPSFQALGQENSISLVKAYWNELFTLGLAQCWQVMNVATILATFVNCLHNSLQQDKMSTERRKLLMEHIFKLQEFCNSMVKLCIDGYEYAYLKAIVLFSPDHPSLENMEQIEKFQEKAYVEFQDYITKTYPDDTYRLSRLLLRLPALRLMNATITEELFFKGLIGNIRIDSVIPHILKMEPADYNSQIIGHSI

[9] = target: Nuclear receptor subfamily 2 group E member 1 (Homo sapiens) (UniProt Q9Y466); test: Selectivity interaction (Reporter gene assay) EUB0000184b NR2E1; parameters: recommended concentration 1 uM
Sequence of Nuclear receptor subfamily 2 group E member 1 (Homo sapiens) (Q9Y466 whole entry): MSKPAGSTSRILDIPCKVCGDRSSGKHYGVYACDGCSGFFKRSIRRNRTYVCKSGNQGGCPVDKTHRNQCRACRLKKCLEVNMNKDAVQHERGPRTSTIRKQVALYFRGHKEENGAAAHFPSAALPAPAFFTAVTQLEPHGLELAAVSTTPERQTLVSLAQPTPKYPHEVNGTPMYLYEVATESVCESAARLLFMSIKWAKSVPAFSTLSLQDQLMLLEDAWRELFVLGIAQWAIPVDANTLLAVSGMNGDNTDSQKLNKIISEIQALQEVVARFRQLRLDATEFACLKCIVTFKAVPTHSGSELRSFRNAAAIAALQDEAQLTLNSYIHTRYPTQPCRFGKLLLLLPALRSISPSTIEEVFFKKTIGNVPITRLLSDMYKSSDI

[10] = target: Nuclear receptor subfamily 4immunitygroup A member 1 (Homo sapiens) (UniProt P22736); test: Selectivity interaction (Reporter gene assay) EUB0000184b NR4A1; parameters: recommended concentration 1 uM
Sequence of Nuclear receptor subfamily 4immunitygroup A member 1 (Homo sapiens) (P22736 whole entry): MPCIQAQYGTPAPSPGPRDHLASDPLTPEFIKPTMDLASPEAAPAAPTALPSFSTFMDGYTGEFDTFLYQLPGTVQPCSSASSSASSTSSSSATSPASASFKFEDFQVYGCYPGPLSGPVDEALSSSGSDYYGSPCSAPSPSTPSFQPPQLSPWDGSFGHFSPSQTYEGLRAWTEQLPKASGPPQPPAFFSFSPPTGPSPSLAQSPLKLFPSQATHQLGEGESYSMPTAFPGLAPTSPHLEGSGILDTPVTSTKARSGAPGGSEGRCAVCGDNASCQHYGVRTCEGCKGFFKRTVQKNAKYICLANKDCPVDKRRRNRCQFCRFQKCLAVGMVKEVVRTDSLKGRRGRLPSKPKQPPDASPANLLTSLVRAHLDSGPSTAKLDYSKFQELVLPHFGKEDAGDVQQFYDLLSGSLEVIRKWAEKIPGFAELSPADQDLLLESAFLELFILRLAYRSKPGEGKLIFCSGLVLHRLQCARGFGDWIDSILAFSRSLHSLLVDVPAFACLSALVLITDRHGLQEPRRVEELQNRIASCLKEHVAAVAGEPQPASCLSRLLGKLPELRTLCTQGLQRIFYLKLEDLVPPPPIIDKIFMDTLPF

[11] = target: Steroidogenic factor 1 (Homo sapiens) (UniProt Q13285); test: Selectivity interaction (Reporter gene assay) EUB0000184b NR5A1; parameters: recommended concentration 1 uM
Sequence of Steroidogenic factor 1 (Homo sapiens) (Q13285 whole entry): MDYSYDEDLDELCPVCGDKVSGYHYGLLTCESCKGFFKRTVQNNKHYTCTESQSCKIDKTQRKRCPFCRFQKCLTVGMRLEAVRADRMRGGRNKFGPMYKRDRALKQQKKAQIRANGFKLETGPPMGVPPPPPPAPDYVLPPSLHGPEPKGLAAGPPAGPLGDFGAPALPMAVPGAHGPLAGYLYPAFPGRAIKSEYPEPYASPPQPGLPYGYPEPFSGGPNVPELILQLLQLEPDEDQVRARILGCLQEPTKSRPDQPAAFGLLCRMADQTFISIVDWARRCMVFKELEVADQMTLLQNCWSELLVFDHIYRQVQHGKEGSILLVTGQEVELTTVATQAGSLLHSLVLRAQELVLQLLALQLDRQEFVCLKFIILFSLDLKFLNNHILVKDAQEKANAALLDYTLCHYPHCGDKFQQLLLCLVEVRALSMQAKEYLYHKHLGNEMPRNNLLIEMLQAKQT

[12] = target: T3, Hepatocyte nuclear factor 4-alpha (Homo sapiens); test: Selectivity interaction (Reporter gene assay) EUB0000182b HNF4A; parameters: recommended concentration 1 uM
[13] = target: T1, Retinoic acid receptor RXR-alpha (Homo sapiens); test: Selectivity interaction (Reporter gene assay) EUB0000182b RXRA; parameters: recommended concentration 1 uM; conditions: reference bexarotene 1 uM, Selectivity number of off-targets 0.0, Selectivity number of targets 1.0, Source Knowledge inhouse
[14] = target: Nuclear receptor subfamily 2 group E member 1 (Homo sapiens) (UniProt Q9Y466); test: Selectivity interaction (Reporter gene assay) EUB0000182b NR2E1; parameters: recommended concentration 1 uM
[15] = target: T2, Alpha trans-inducing protein (Human alphaherpesvirus 1); test: Selectivity interaction (Reporter gene assay) EUB0000182b UL48; parameters: recommended concentration 1 uM
[16] = target: T4, Nuclear receptor subfamily 2 group C member 1 (Homo sapiens); test: Selectivity interaction (Reporter gene assay) EUB0000182b NR2C1; parameters: recommended concentration 1 uM
[17] = target: Nuclear receptor subfamily 4immunitygroup A member 1 (Homo sapiens) (UniProt P22736); test: Selectivity interaction (Reporter gene assay) EUB0000182b NR4A1; parameters: recommended concentration 1 uM
[18] = target: Steroidogenic factor 1 (Homo sapiens) (UniProt Q13285); test: Selectivity interaction (Reporter gene assay) EUB0000182b NR5A1; parameters: recommended concentration 1 uM
[19] = target: Nuclear receptor subfamily 4immunitygroup A member 1 (Homo sapiens) (UniProt P22736)
[20] = target: T2, Alpha trans-inducing protein (Human alphaherpesvirus 1); test: Selectivity interaction (Reporter gene assay) EUB0000040b UL48; parameters: recommended concentration 1 uM
[21] = target: Nuclear receptor subfamily 2 group E member 1 (Homo sapiens) (UniProt Q9Y466)
[22] = target: Steroidogenic factor 1 (Homo sapiens) (UniProt Q13285); test: Selectivity interaction (Reporter gene assay) EUB0000188b NR5A1; parameters: recommended concentration 1 uM
[23] = target: Nuclear receptor subfamily 4immunitygroup A member 1 (Homo sapiens) (UniProt P22736); test: Selectivity interaction (Reporter gene assay) EUB0000188b NR4A1; parameters: recommended concentration 1 uM
[24] = target: Nuclear receptor subfamily 2 group E member 1 (Homo sapiens) (UniProt Q9Y466); test: Selectivity interaction (Reporter gene assay) EUB0000188b NR2E1; parameters: recommended concentration 1 uM
[25] = target: T1, Retinoic acid receptor RXR-alpha (Homo sapiens); test: Selectivity interaction (Reporter gene assay) EUB0000188b RXRA; parameters: recommended concentration 1 uM; conditions: reference bexarotene 1 uM, Selectivity number of off-targets 0.0, Selectivity number of targets 1.0, Source Knowledge inhouse
[26] = target: T2, Alpha trans-inducing protein (Human alphaherpesvirus 1); test: Selectivity interaction (Reporter gene assay) EUB0000188b UL48; parameters: recommended concentration 1 uM
[27] = target: T4, Nuclear receptor subfamily 2 group C member 1 (Homo sapiens); test: Selectivity interaction (Reporter gene assay) EUB0000188b NR2C1; parameters: recommended concentration 1 uM
[28] = target: T3, Hepatocyte nuclear factor 4-alpha (Homo sapiens); test: Selectivity interaction (Reporter gene assay) EUB0000188b HNF4A; parameters: recommended concentration 1 uM
[29] = target: T3, Hepatocyte nuclear factor 4-alpha (Homo sapiens); test: Selectivity interaction (Reporter gene assay) EUB0000183b HNF4A; parameters: recommended concentration 3 uM
[30] = target: T4, Nuclear receptor subfamily 2 group C member 1 (Homo sapiens); test: Selectivity interaction (Reporter gene assay) EUB0000183b NR2C1; parameters: recommended concentration 3 uM
[31] = target: Steroidogenic factor 1 (Homo sapiens) (UniProt Q13285); test: Selectivity interaction (Reporter gene assay) EUB0000183b NR5A1; parameters: recommended concentration 3 uM
[32] = target: T1, Retinoic acid receptor RXR-alpha (Homo sapiens); test: Selectivity interaction (Reporter gene assay) EUB0000183b RXRA; parameters: recommended concentration 3 uM
[33] = target: T2, Alpha trans-inducing protein (Human alphaherpesvirus 1); test: Selectivity interaction (Reporter gene assay) EUB0000183b UL48; parameters: recommended concentration 3 uM
[34] = target: Nuclear receptor subfamily 4immunitygroup A member 1 (Homo sapiens) (UniProt P22736); test: Selectivity interaction (Reporter gene assay) EUB0000183b NR4A1; parameters: recommended concentration 3 uM
[35] = target: Nuclear receptor subfamily 2 group E member 1 (Homo sapiens) (UniProt Q9Y466); test: Selectivity interaction (Reporter gene assay) EUB0000183b NR2E1; parameters: recommended concentration 3 uM

Sequence of Sodium-dependent noradrenaline transporter (Homo sapiens) (P23975 whole entry): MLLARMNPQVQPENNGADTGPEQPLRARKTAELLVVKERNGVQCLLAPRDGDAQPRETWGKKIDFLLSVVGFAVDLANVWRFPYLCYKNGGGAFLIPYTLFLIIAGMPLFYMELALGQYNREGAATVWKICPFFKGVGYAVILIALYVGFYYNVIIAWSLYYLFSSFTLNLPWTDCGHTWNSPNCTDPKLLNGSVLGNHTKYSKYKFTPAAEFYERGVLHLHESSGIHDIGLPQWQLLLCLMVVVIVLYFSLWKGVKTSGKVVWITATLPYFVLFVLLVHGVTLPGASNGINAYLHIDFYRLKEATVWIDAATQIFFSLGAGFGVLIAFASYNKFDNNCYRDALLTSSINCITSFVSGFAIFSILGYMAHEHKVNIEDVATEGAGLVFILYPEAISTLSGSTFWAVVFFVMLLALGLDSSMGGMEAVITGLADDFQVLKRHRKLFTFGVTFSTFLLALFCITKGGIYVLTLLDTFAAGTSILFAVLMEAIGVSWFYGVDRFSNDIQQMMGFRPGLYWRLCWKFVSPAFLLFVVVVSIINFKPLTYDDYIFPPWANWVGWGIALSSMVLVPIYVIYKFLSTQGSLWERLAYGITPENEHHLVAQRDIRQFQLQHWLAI

## Nc1nc(NC2CC2)cc(-c2cccc(Cl)c2Cl)n1
[1]
  Inhibition of control: 99%
[2]
  Inhibition of control: 92%
[3]
  Inhibition of control: 81%
[4]
  Inhibition of control: 79%

## CC(C)c1onc(-c2c(Cl)cccc2Cl)c1COc1ccc(/C=C/c2cccc(C(=O)O)c2)c(Cl)c1
[5]
  Relative activation: 0.803%
[6]
  P-value: 3.89e-13
[7]
  Fold activation: 1.24
[8]
  Fold activation: 1.33
[9]
  Fold activation: 1.12
[10]
  Fold activation: 1.41
[11]
  Remaining activity: 0.927

## COC(=O)/C=C/c1cccc(N(Cc2ccc(-c3ccc(N(C)C)cc3)cc2)C(=O)C2CCCCC2)c1
[12]
  Fold activation: 1.05
[13]
  Relative activation: 0.492%
[14]
  Fold activation: 1.24
[15]
  P-value: 2.38e-08
[16]
  Fold activation: 1.38
[17]
  Fold activation: 1.14
[18]
  Fold activation: 1.09

## O=S(=O)(c1ccccc1)N(CC(F)(F)F)c1ccc(C(O)(C(F)(F)F)C(F)(F)F)cc1
[19]
  Remaining activity: 0.903
[20]
  P-value: 0.000575
[21]
  Remaining activity: 0.742

## CCCc1c(OCCCOc2ccc(OCC(=O)O)cc2)ccc(C(C)=O)c1O
[22]
  Remaining activity: 0.985
[23]
  Fold activation: 1.22
[24]
  Fold activation: 1.34
[25]
  Relative activation: 1.18%
[26]
  P-value: 1.09e-07
[27]
  Fold activation: 1.36
[28]
  Fold activation: 1.1

## Cc1cc(C)c(S(=O)(=O)N(Cc2ccc(-c3cccc(S(C)(=O)=O)c3)cc2)Cc2ccc(C(F)(F)F)o2)c(C)c1
[29]
  Fold activation: 1.28
[30]
  Fold activation: 1.06
[31]
  Fold activation: 1.29
[32]
  Relative activation: 0.984%
[33]
  P-value: 0.011
[34]
  Remaining activity: 0.982
[35]
  Fold activation: 1.26
